Among the data in patent publication US12384769B2, “Heteroaryl-substituted aminoalkyl azole compounds as pesticides” (Elanco Animal Health GmbH, priority 2019, dated 2025) are pest or weed control and mortality values, retold here.

Assay type in all cases: in vivo
The test system of experiment [1] is Boophilus microplus. Kind of experiment: Boophilus microplus injection test (BOOPMI Injection). The note with it: Rhipicephalus microplus, 168 h, injection into adult engorged female ticks, egg deposition after 7 days, read-out: activity (efficacy, infertile eggs); for pest or weed control at 0.004 mg: 4 μg/animal; for pest or weed control at 0.02 mg: 20 μg/animal. Put shortly: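 Adult engorged female ticks (5 per group) injected into the abdomen with 1 μL compound in DMSO, then held in a climate chamber. Fertile egg deposition scored after 7 days, with unclear eggs kept until hatching (~42 days). Efficacy 100% = all eggs infertile, 0% = all fertile.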

For experiment [2], the system named is Rhipicephalus microplus (strain Parkhurst, resistant against synthetic pyrethroids). The experiment is described as follows: Rhipicephalus microplus in-vitro contact test, larval cattle tick (BOOPMI Contact). The conditions noted are these: 5 μg/cm^2 (=500 g/ha), after 48 hours, read-out: activity (efficacy, larvae dead or moribund). The method, boiled down:
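Glass tubes coated with compound in acetone (900 ppm giving 5 μg/cm²), dried, then loaded with 20-50 pyrethroid-resistant Parkhurst larvae and held at 27 °C, 85% RH. After 48 h negative geotaxis is scored; efficacy in % dead or moribund larvae.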

Experiment [3] deals with Ctenocephalides felis. The experiment is described as follows: Ctenocephalides felis in-vitro contact test, adult cat flea. The conditions noted are these: 5 μg/cm^2 (=500 g/ha), after 48 hours, read-out: activity (efficacy, fleas dead or moribund). How it is done: Ctenocephalides felis—in-Vitro Contact Tests Adult Cat Flea
9 mg compound is solved in 1 ml acetone and diluted with acetone to the desired concentration. […] the test solution is filled in 25 ml glass test tubes and homogeneously distributed on the inner walls by rotation and tilting on a shaking device (2 h at 30 rpm). With a compound concentration of 900 ppm, an inner surface of 44.7 cm^2 and a homogeneous distribution, a dose of 5 μg/cm^2 is achieved.
After the solvent has evaporated, each test tube is filled with 5-10 adult cat fleas (Ctenocephalides felis), closed with a perforated lid and incubated in a lying position at room temperature and relative humidity. After 48 hours efficacy is determined. The fleas are patted on the ground of the tubes and are incubated on a heating plate at 45-50° C. for at most 5 minutes Immotile or uncoordinated moving fleas, which are not able to escape the heat by climbing upwards, are marked as dead or moribund.
An efficacy of 100% means all fleas are dead or moribund; 0% means no fleas are dead or moribund.

The test system of experiment [4] is Ctenocephalides felis. Kind of experiment: Ctenocephalides felis oral test (CTECFE). The conditions noted are these: 48 h, 100 ppm in cattle blood, after 2 days. Put shortly:
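About 20 adult unfed fleas fed through parafilm on cattle blood held at 37° C and dosed with compound from a DMSO concentrate; flea chamber at room temperature. Percent mortality scored after 2 days.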

Experiment [5] has as its system Rhipicephalus sanguineus. The experiment is described as follows: Rhipicephalus sanguineus in-vitro contact test, adult brown dog ticks (RHIPSA Contact). The note with it: 5 μg/cm^2 (=500 g/ha), after 48 hours, read-out: activity (efficacy, ticks dead or moribund). How it is done: Rhipicephalus sanguineus—in-Vitro Contact Tests with Adult Brown Dog Ticks (RHIPSA Contact)
9 mg compound is solved in 1 ml acetone and diluted with acetone to the desired concentration. 250 μl_, of the test solution is filled in 25 ml glass test tubes and homogeneously distributed on the inner walls by rotation and tilting on a shaking device (2 h at 30 rpm). With a compound concentration of 900 ppm, an inner surface of 44.7 cm^2 and a homogeneous distribution, a dose of 5 μg/cm^2 is achieved.
After the solvent has evaporated, each test tube is filled with 5-10 adult brown dog ticks (Rhipicephalus sanguineus), closed with a perforated lid and incubated in a lying position at room temperature and relative humidity. After 48 hours efficacy is determined. The ticks are patted on the ground of the tubes and are incubated on a heating plate at 45-50° C. for at most 5 minutes Immotile or uncoordinated moving ticks, which are not able to escape the heat by climbing upwards, are marked as dead or moribund.
An efficacy of 100% means all ticks are dead or moribund; 0% means no ticks are dead or moribund.

Experiment [6] concerns Diabrotica balteata. Kind of experiment: Diabrotica balteata spray test. The conditions noted are these: 168 h, wheat seeds, after 7 days, read-out: activity (efficacy, seedlings grown); for pest or weed control at 160 µg/disc, 500 g/ha: 500 g/ha (=160 μg/well). Put shortly: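 Germinated wheat seedlings (5 per well, on agar) sprayed with compound in acetone/DMF with emulsifier-containing water, then infested with 10–20 Diabrotica balteata larvae. Efficacy (%) scored after 7 days from seedling growth: 100% = growth as untreated uninfested control, 0% = no seedlings grown.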

In experiment [7] the test system is Spodoptera frugiperda. The experiment is described as follows: Spodoptera frugiperda spray test. The note with it: in Zea mays, 168 h, read-out: activity (mortality). Put shortly: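 Compound in acetone/DMF, diluted in water with 1000 ppm alkylarylpolyglycol ether emulsifier, sprayed on maize leaf sections. Dried leaves infested with fall armyworm larvae; % mortality after 7 days (100% = all killed, 0% = none).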

Experiment [8] deals with Myzus persicae. Kind of experiment: Myzus persicae oral test. The note with it: 120 h, after 5 days. How it is done:
Solvent: 100 parts by weight acetone
Afterwards the plates are sealed with parafilm through which a mixed population of the green peach aphid (Myzus persicae) can suck on the compound preparation.
After 5 days mortality in % is determined. 100% means all aphids have been killed and 0% means none of the aphids have been killed.

With `C[C@H](Nc1nc2cc(C(F)(F)F)cc(Cl)c2o1)c1ncnn1-c1ncc(Cl)cn1` [Example I-036, 7-chloro-N-{(1S)-1-[1-(5-chloropyrimidin-2-yl)-1H-1,2,4-triazol-5-yl]ethyl}-5-(trifluoromethyl)-1,3-benzoxazol-2-amine], the pest or weed control at 0.004 mg in experiment [1] was 100%. In experiment [1], the pest or weed control at 0.02 mg was 100%. In experiment [2], the pest or weed control at 5 µg/cm2 is 100%. In addition, the values for the pest or weed control at 5 µg/cm2, 5 µg/cm2 in experiment [3] and in experiment [5] were 80% and 100%, respectively. In experiment [4], this compound displayed a mortality at 100 ppm of 100%. Further, in experiment [6], the pest or weed control at 100 g/ha was found to be 100%. For the same compound, in experiment [7], the mortality at 100 g/ha amounted to 100%.

For `Cc1cnc(-n2ncnc2[C@H](C)Nc2nc3cc(C(F)(F)F)cc(Cl)c3o2)nc1` [Example I-040, 7-Chlor-N-{(1S)-1-[1-(5-methylpyrimidin-2-yl)-1H-1,2,4-triazol-5-yl]ethyl}-5-(trifluormethyl)-1,3-benzoxazol-2-amin], the pest or weed control at 0.004 mg in experiment [1] came to 100%. Moreover, in experiment [2], the pest or weed control at 5 µg/cm2 was determined as 90%. For the same compound, the pest or weed control at 5 µg/cm2, 5 µg/cm2 in experiment [3] and in experiment [5] was 100% throughout. In experiment [4], this compound displayed a mortality at 100 ppm of 100%. In addition, the pest or weed control at 100 g/ha in experiment [6] was found to be 100%.

For the compound `Cc1nc([C@H](C)Nc2nc3cc(Cl)cc(C(F)(F)F)c3o2)n(-c2ccc(C(F)(F)F)cn2)n1` [Example I-086, 5-Chlor-N-[(1S)-1-{3-methyl-1-[5-(trifluormethyl)pyridin-2-yl]-1H-1,2,4-triazol-5-yl}ethyl]-7-(trifluormethyl)-1,3-benzoxazol-2-amin], in experiment [2], the pest or weed control at 5 µg/cm2 is 90%. In experiment [8], this compound registered a mortality at 4 ppm of 90%.

On to `Cc1nc([C@H](C)Nc2nc3cc(C(F)(F)F)c(Cl)cc3o2)n(-c2ncccn2)n1` [Example I-011], for which, in experiment [1], the pest or weed control at 0.004 mg came to 100% and the pest or weed control at 0.02 mg amounted to 100%. Also, in experiment [2], the pest or weed control at 5 µg/cm2 came out at 80%. The same compound came in with a mortality at 100 ppm in experiment [4] of 100%. The pest or weed control at 5 µg/cm2, 5 µg/cm2 in experiment [5] came to 80%. In experiment [6], the pest or weed control at 100 g/ha stood at 100% and the pest or weed control at 160 µg/disc, 500 g/ha came out at 100%. In experiment [8], the mortality at 4 ppm is 90%. Also, the mortality at 500 g/ha in experiment [7] came to 100%.

In the case of `C[C@H](Nc1nc2cc(C(F)(F)F)cc(Cl)c2o1)c1ncnn1-c1ncc(F)cn1` [Example I-045, 7-Chlor-N-{(1S)-1-[1-(5-fluorpyrimidin-2-yl)-1H-1,2,4-triazol-5-yl]ethyl}-5-(trifluormethyl)-1,3-benzoxazol-2-amin], in experiment [1], the pest or weed control at 0.004 mg worked out at 100% and the pest or weed control at 0.02 mg was determined as 100%. For the same compound, the pest or weed control at 5 µg/cm2 in experiment [2] amounted to 80%. In experiment [3], the pest or weed control at 5 µg/cm2, 5 µg/cm2 came to 100%. In experiment [4], this compound gave a mortality at 100 ppm of 100%. Moreover, the pest or weed control at 5 µg/cm2, 5 µg/cm2 in experiment [5] was determined as 100%. In addition, in experiment [6], the pest or weed control at 100 g/ha is 100% and the pest or weed control at 160 µg/disc, 500 g/ha is 100%. Besides, in experiment [7], the mortality at 100 g/ha came to 100% and the mortality at 500 g/ha amounted to 100%.

In the case of `C[C@H](Nc1nc2cc(C3CC3)cc(Cl)c2o1)c1ncnn1-c1ncccn1` [Example I-065, 7-Chlor-5-cyclopropyl-N-{(1S)-1-[1-(pyrimidin-2-yl)-1H-1,2,4-triazol-5-yl]ethyl}-1,3-benzoxazol-2-amin], in experiment [1], the pest or weed control at 0.004 mg stood at 100% and the pest or weed control at 0.02 mg was determined as 100%. Further, in experiment [3], the pest or weed control at 5 µg/cm2, 5 µg/cm2 is 100%. For the same compound, in experiment [4], the mortality at 100 ppm came out at 100%. Further, in experiment [5], the pest or weed control at 5 µg/cm2, 5 µg/cm2 was 100%. In experiment [6], the pest or weed control at 100 g/ha came to 100% and the pest or weed control at 160 µg/disc, 500 g/ha came out at 100%.

In the case of `Cc1cnc(-n2ncnc2[C@H](C)Nc2nc3cc(C(F)(F)F)c(Cl)cc3o2)nc1` [Example I-060, 6-Chlor-N-{(1S)-1-[1-(5-methylpyrimidin-2-yl)-1H-1,2,4-triazol-5-yl]ethyl}-5-(trifluormethyl)-1,3-benzoxazol-2-amin], the pest or weed control at 5 µg/cm2 in experiment [2] amounted to 100%. Also, the pest or weed control at 5 µg/cm2, 5 µg/cm2 in experiment [3] was 100%; in experiment [5], 80%. Besides, the pest or weed control at 100 g/ha in experiment [6] turned out to be 100%. Also, the mortality at 4 ppm in experiment [8] amounted to 90%. For the same compound, in experiment [7], the mortality at 100 g/ha came out at 83%.

On to `C[C@H](Nc1nc2cc(C(F)(F)F)c(Cl)cc2o1)c1ncnn1-c1ncc(Br)cn1` [Example I-062, N-{(1S)-1-[1-(5-Brompyrimidin-2-yl)-1H-1,2,4-triazol-5-yl]ethyl}-6-chlor-5-(trifluormethyl)-1,3-benzoxazol-2-amin], for which, in experiment [1], the pest or weed control at 0.004 mg turned out to be 100% and the pest or weed control at 0.02 mg came to 100%. Also, the pest or weed control at 5 µg/cm2 in experiment [2] was determined as 100%. Also, the pest or weed control at 5 µg/cm2, 5 µg/cm2 in experiment [3] stood at 100%. In addition, in experiment [5], the pest or weed control at 5 µg/cm2, 5 µg/cm2 is 100%. In addition, in experiment [6], the pest or weed control at 100 g/ha is 100% and the pest or weed control at 160 µg/disc, 500 g/ha was found to be 100%. In experiment [7], the mortality at 100 g/ha was determined as 100% and the mortality at 500 g/ha came out at 100%.

On to `C[C@H](Nc1nc2cc(C(F)(F)F)c(Cl)cc2o1)c1nc(C2CC2)nn1-c1ccc(C#N)cn1` [Example I-100, 6-{5-[(1S)-1-{[6-chloro-5-(trifluoromethyl)-1,3-benzoxazol-2-yl]amino}ethyl]-3-cyclopropyl-1H-1,2,4-triazol-1-yl}pyridine-3-carbonitrile], for which the pest or weed control at 100 g/ha in experiment [6] stood at 100%. In experiment [8], this compound had a mortality at 4 ppm of 90%. For the same compound, the mortality at 100 g/ha in experiment [7] was 100%.

Take `C[C@H](Nc1nc2cc(C(F)(F)F)c(Cl)cn2n1)c1ncnn1-c1ncccn1` [Example I-096, 6-chloro-N-{(1S)-1-[1-(pyrimidin-2-yl)-1H-1,2,4-triazol-5-yl]ethyl}-7-(trifluoromethyl)[1,2,4]triazolo[1,5-a]pyridin-2-amine]: the pest or weed control at 5 µg/cm2 in experiment [2] was determined as 90%. Also, the pest or weed control at 5 µg/cm2, 5 µg/cm2 in experiment [3] and in experiment [5] was 100% each time. The mortality at 100 ppm in experiment [4] came to 100%.

Take `C[C@H](Nc1nc2cc(S(F)(F)(F)(F)F)cc(Cl)c2o1)c1ncnn1-c1ncc(Br)cn1` [Example I-083, N-{(1S)-1-[1-(5-Brompyrimidin-2-yl)-1H-1,2,4-triazol-5-yl]ethyl}-7-chlor-5-(pentafluor-lambda^6-sulfanyl)-1,3-benzoxazol-2-amin]: the pest or weed control at 5 µg/cm2 in experiment [2] turned out to be 100%. For the same compound, the pest or weed control at 5 µg/cm2, 5 µg/cm2 in experiment [3] stood at 80%; in experiment [5] it was 100%. Moreover, the pest or weed control at 100 g/ha in experiment [6] was determined as 80%. In addition, the mortality at 100 g/ha in experiment [7] was 100%.

As usually defined, the mortality is the share of the test organisms that died.
